According to ChEMBL document CHEMBL1201862, “PubChem BioAssay data set” (2004):
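Protocol summary: plate cells (96-well), add compound at 5 concentrations, incubate 48 h, interpolate endpoints linearly. GI50 marks 50% less growth.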 Active and inactive are the calls of the source. Rule as the data show it: active = GI50 up to about 1.1 µM and inactive = higher.

Tests used:
Assay in all cases: growth of human tumour cells (NCI), 48 h
NCI-H226 = test system: NCI-H226
MCF7 = test system: MCF7
MDA-MB-435 = test system: MDA-MB-435
SF-539 = test system: SF-539
PC-3 = test system: PC-3
COLO 205 = test system: COLO 205
OVCAR-4 = test system: OVCAR-4
EKVX = test system: EKVX
RXF 393 = test system: RXF 393
RPMI-8226 = test system: RPMI-8226
UO-31 = test system: UO-31
M14 = test system: M14
LOX IMVI = test system: LOX IMVI
MDA-MB-231 = test system: MDA-MB-231
SK-OV-3 = test system: SK-OV-3
T47D = test system: T47D
CCRF-CEM = test system: CCRF-CEM
A498 = test system: A498
SF-268 = test system: SF-268
SW-620 = test system: SW-620

SMILES | GI50 (NCI-H226) | GI50 (MCF7) | GI50 (MDA-MB-435) | GI50 (SF-539) | GI50 (PC-3) | GI50 (COLO 205) | GI50 (OVCAR-4) | GI50 (EKVX) | GI50 (RXF 393) | GI50 (RPMI-8226) | GI50 (UO-31) | GI50 (M14) | GI50 (LOX IMVI) | GI50 (MDA-MB-231) | GI50 (SK-OV-3) | GI50 (T47D) | GI50 (CCRF-CEM) | GI50 (A498) | GI50 (SF-268) | GI50 (SW-620)
O=[N+]([O-])C(=C1NCCN1)C(Cl)=C(Cl)Cl | > 100 µM (inactive) | > 100 µM (inactive) | > 100 µM (inactive) | > 100 µM (inactive) | > 100 µM (inactive) | > 100 µM (inactive) | > 100 µM (inactive) | > 100 µM (inactive) | > 100 µM (inactive) | > 100 µM (inactive) | > 100 µM (inactive) | > 100 µM (inactive) | > 100 µM (inactive) | > 100 µM (inactive) | > 100 µM (inactive) | > 100 µM (inactive) | 52.6 µM (inactive) | > 100 µM (inactive) | > 100 µM (inactive) | –
COc1cc2c3c(c1)CCCN3CCC2 | > 10 µM (inactive) | > 10 µM (inactive) | > 10 µM (inactive) | > 10 µM (inactive) | > 10 µM (inactive) | > 10 µM (inactive) | > 10 µM (inactive) | > 10 µM (inactive) | > 10 µM (inactive) | > 10 µM (inactive) | > 10 µM (inactive) | > 10 µM (inactive) | > 10 µM (inactive) | > 10 µM (inactive) | > 10 µM (inactive) | > 10 µM (inactive) | > 10 µM (inactive) | > 10 µM (inactive) | > 10 µM (inactive) | > 10 µM (inactive)
Cl/C(=C\C=N\c1ccc(I)cc1)c1ccc2ccccc2c1 | 20.8 µM (inactive) | 23.2 µM (inactive) | 9.42 µM (inactive) | 19.9 µM (inactive) | 25.3 µM (inactive) | 16.3 µM (inactive) | 24.5 µM (inactive) | 36.2 µM (inactive) | 22.2 µM (inactive) | 17.3 µM (inactive) | 17.5 µM (inactive) | 14.3 µM (inactive) | 8.53 µM (inactive) | 14.5 µM (inactive) | 22.5 µM (inactive) | 10.4 µM (inactive) | 7.29 µM (inactive) | 47.6 µM (inactive) | 20.7 µM (inactive) | 19.1 µM (inactive)
COc1ccc(Nc2nc3ccc(C(F)(F)F)cc3nc2C(=O)O)cc1 | 20.6 µM (inactive) | 36.6 µM (inactive) | 34.3 µM (inactive) | 23.9 µM (inactive) | 29.6 µM (inactive) | 34.1 µM (inactive) | 47.8 µM (inactive) | 31.5 µM (inactive) | 22.9 µM (inactive) | 12.1 µM (inactive) | – | 36.4 µM (inactive) | 32.5 µM (inactive) | 66.4 µM (inactive) | 20.4 µM (inactive) | 33.4 µM (inactive) | 27 µM (inactive) | 16.7 µM (inactive) | 37.7 µM (inactive) | 38.4 µM (inactive)
COc1ccc2c(C)cc(N/N=C/c3ccc(C)s3)nc2c1 | 13 µM (inactive) | 6.24 µM (inactive) | 16.3 µM (inactive) | 13.6 µM (inactive) | 14.1 µM (inactive) | 2.81 µM (inactive) | 11.1 µM (inactive) | 5.4 µM (inactive) | 14.3 µM (inactive) | 3.55 µM (inactive) | 13.6 µM (inactive) | 6.55 µM (inactive) | 3.46 µM (inactive) | 6.49 µM (inactive) | 17 µM (inactive) | 6.53 µM (inactive) | 5.37 µM (inactive) | 19.4 µM (inactive) | 25.8 µM (inactive) | 13.1 µM (inactive)
CCOC(=O)c1cn2c(n1)sc1c(Cl)c(Cl)ccc12 | 14.8 µM (inactive) | 11.1 µM (inactive) | 3.31 µM (inactive) | 6.76 µM (inactive) | 18.3 µM (inactive) | 6.1 µM (inactive) | 46.6 µM (inactive) | 31 µM (inactive) | 23.8 µM (inactive) | 5.02 µM (inactive) | 13.4 µM (inactive) | 9.38 µM (inactive) | 13.2 µM (inactive) | 26.7 µM (inactive) | > 51.8 µM (inactive) | 0.91 µM (active) | 4.97 µM (inactive) | 20.6 µM (inactive) | 16.9 µM (inactive) | 5.13 µM (inactive)
CC1(C)OC(=O)C(C)(C)OC1=O | > 100 µM (inactive) | > 100 µM (inactive) | > 100 µM (inactive) | > 100 µM (inactive) | > 100 µM (inactive) | > 100 µM (inactive) | > 100 µM (inactive) | > 100 µM (inactive) | > 100 µM (inactive) | > 100 µM (inactive) | > 100 µM (inactive) | > 100 µM (inactive) | > 100 µM (inactive) | > 100 µM (inactive) | > 100 µM (inactive) | > 100 µM (inactive) | > 100 µM (inactive) | > 100 µM (inactive) | > 100 µM (inactive) | > 100 µM (inactive)
